This is an account of results in patent US8404665B2, “In vivo use of glutathione S-transferase activated nitric oxide donors” (University of Utah Research Foundation, priority 2002, dated 2013).

Entries after “also recorded” stand apart in the source; their conditions may differ. Like-named read-outs stand apart in the source and are kept apart here.

The nature of series [1]: Reactivity of JS-K with GSH (HPLC-MS, pseudo-first order kinetics). Format: physicochemical. Particulars: 37° C. As to the method: Chromatography and Mass Spectrometry. High Performance Liquid Chromatography (HPLC) separations were carried out with a Phenomenex Luna 5 u C18(2) column (Torrance, Calif.) using a gradient of acetonitrile:water (each containing 0.1% formic acid) at a flow rate of 1 ml/min (% acetonitrile: 25% for 0-5 min followed by a linear program to 70% at 15 min).
HPLC-Mass Spectrometry (MS) studies were performed on an Agilent Capillary Series 1100 LC/MSD Ion Trap mass spectrometer with electrospray ionization in the positive ion mode (CITY, STATE). Separations were effected as above, except that the flow rate was 15 ul/min and the gradient was 10% acetonitrile for 0-5 min followed by a linear program to 70% at 15 min.
The diazeniumdiolate ion appears to resemble chloride as a leaving group in SNAr reactions (Saavedra, J. E. et al. (2001) J. Org. Chem. 66: 3090-3098). Since 1-chloro-2,4-dinitrobenzene is believed to react with GSH, it was anticipated that JS-K would be similarly converted to DNP-SG. This was indicated by HPLC-MS where there appeared to be an 85% conversion of JS-K to DNP-SG within a 30-min incubation period at 37° C. in pH 7.4 phosphate buffer. Similar results appeared in a RPMI-1640 cell culture medium. Pseudo-first order kinetic plots for the reaction of GSH with JS-K in 0.1 M phosphate buffer (pH 7.4) were obtained with GSH (1-5 mM) in large excess of the substrate. Excellent first-order behavior was observed over several half-lives, and measured first-order rate constants appeared to show a linear dependence on [GSH]. The slope and y-intercept of the line yielded values for the second-order [k2=(1.02±0.04) M^−1 s^−1] and first order [k1=(4±12)×10^−5 s^−1] rate constants for the reactions of JS-K with GSH and water, respectively, at 37° C. in 0.1 M phosphate buffer, pH 7.4. The ultraviolet spectral changes accompanying the reaction in a second cell culture medium (Dulbecco's Modified Eagle's Medium) appeared to confirm the above stated kinetic rate constants.

The subject of series [2] is HL-60 cells. The series can be described thus: Combination treatment: JS-K pretreatment then etoposide or daunorubicin, MTT. Particulars: HL-60, JS-K pretreatment (0.25 μM). Format: cell-based, human. As to the method:
Combination treatment. For combined drug treatment, HL-60 cell lines were pretreated with JS-K (0.25 μM) for 6 h in RPMI 1640 at 37° C. The JS-K-containing culture medium was then removed and replaced with fresh RPMI-1640. Three different concentrations of either etoposide (0.2, 0.3 and 0.4 μM) or daunorubicin (5, 10 and 50 nM) were added to the pretreated HL-60 cells. The cells were incubated at 37° C. for additional 48 hours. Solution of 3-[4,5-dimethylthiazol-2-yl]-2,5-[…] (MTT) tetrazolium salt (1 mg/ml) was added to the cells. The cells were incubated again for 3 h to allow for MTT metabolism to formazan by the succinate-tetrazolim reductase system active only in viable cells. A solution of 0.04 N HCl in isopropyl alcohol was added to stop the MTT assay. The supernatant was then aspirated and 150 μl of trituration was added to dissolve the water-insoluble blue formazan. The optical densities were read on a spectrophotometric plate reader at a single wavelength of 570 nm. The absorbance for control cells was defined as an MTT activity of 100%.

The test system of series [3] is HL-60 cells. The series can be described thus: HL-60 leukemia cell growth (Coulter counter or MTT assay). Particulars: for cell growth, % of untreated control cells: HL-60, MTT, three days. It is filed as cell-based, human. As to the method: Cell Lines and Culture Conditions. HL-60, DLD1, and U937 cells were obtained from ATCC (Rockville, Md.). Meth A cells were from Dr. Wolfram Samlowski (University of Utah, Salt Lake City, Utah). The PPC-1 cell line was provided by Dr. Graeme Bolger (University of Alabama, Birmingham, Ala.). For the cell growth and apoptosis experiments, cells were cultured at a density of 150,000 cells/ml in RPMI-1640 with 10% fetal bovine serum at 37° C. in a 5% CO2 humidified atmosphere. Agents were added at the indicated concentrations 24 h after culture initiation. At the indicated time intervals, cells were harvested and washed twice in phosphate buffered saline (PBS) prior to processing for analysis of growth, differentiation, and apoptosis.
Cell Growth, Differentiation and Apoptosis Assays. The number of viable cells was determined using the MTT assay according to the manufacturer's protocol (Promega, Madison, Wis.) or using a Coulter counter. Briefly, a MTT assay is an analytical technique that uses the dye dimethylthiazolyl-diphenyltetrazolium (MTT) which turns from yellow to brownish-purple as it is reduced in the mitochondria of living cells. The assay is useful in calorimetric quantitation of cell viability and proliferation. In contrast, cell differentiation was evaluated using Wright and Non-Specific Esterase (NSE) staining of cells collected on microscope slides by cytospin as previously described (Magrinat, G. et al. (1992) Blood 80: 1880-1884). Apoptosis was assayed by flow cytometry and by determining DNA fragmentation using agarose gel electrophoresis as previously described (Shami, P. J. et al. (1998) Leukemia 12: 1461-1466). For the flow cytometry assay, we used the propidium iodide staining method of Nicoletti et al. (Nicoletti, I. et al. (1991) J. Immunol. Methods 139: 271-279).
For the initial screen, HL60 cells were cultured in triplicate in RPMI1640/10% FBS under standard conditions. Compounds were added to the cultures at the following concentrations: 0, 0.1, 1, 10, and 100 micromolar (uM). Three days after addition of the compounds cell growth was determined either using a Coulter counter or using the MTT assay.
The antiproliferative effects in the human AML (Acute Myeloid Leukemia) cell lines, HL-60 (myeloid leukemia) and U937 (monoblastic leukemia) cells were treated with JS-K for a period of 3 days, upon which cell growth was evaluated using a Coulter counter (CITY, STATE). JS-K was added to HL-60 cells at 0, 0.25, 0.5, 0.75, and 1.0 μM concentrations. […] Similar results were obtained in U937 cells under similar conditions.
Background: Tetrazolium dyes change colour on reduction, which living cells bring about.

The nature of series [4]: Hydrolysis of JS-K. Format: physicochemical. As to the method: For increased JS-K consumption rate at an initial concentration of 50 uM in 0.1 M phosphate (pH=7.4) at 37° C. as a function of increasing GSH concentration. The value of k1 obtained from the intercept appeared to be in statistical agreement with the rate constant for JS-K hydrolysis (1×10^−6 s^−1) measured separately in the absence of GSH. The small amount of the hydrolysis product (2,4-dinitrophenol) (data not shown) was apparently formed in the dimethyl sulfoxide stock solution, which in this case had been stored in the refrigerator with intermittent use during several weeks.

Turning to `CCOC(=O)N1CCN(/[N+]([O-])=N/Oc2ccc([N+](=O)[O-])cc2[N+](=O)[O-])CC1` [JS-K, O^2-(2,4-dinitrophenyl) 1-[(4-ethoxycarbonyl)piperazin-1-yl]diazen-1-ium-1,2-diolate], the “first order rate constant k1, reaction with water (y-intercept)” value in series [1] (0.1 M phosphate buffer, pH 7.4) is “(4±12)×10^−5 s^−1”. The “second-order rate constant k2, reaction with GSH” value in series [1] (0.1 M phosphate buffer, pH 7.4) is 1.02 ± 0.04 M⁻¹ s⁻¹. For the same molecule, the “conversion of JS-K to DNP-SG” value in series [1] (within 30-min incubation, pH 7.4 phosphate buffer) is 85%. Besides, the “effect of JS-K pretreatment on daunorubicin and etoposide” value in series [2] was “additive effect; also recorded: significantly enhanced efficacy of daunorubicin and etoposide”. The IC50 in series [3] (HL-60, 3 days, Coulter counter, mean of 3 studies, read-out: IC50, cell growth) was found to be 220 nM; in series [3] (HL-60, initial screen, at three days, read-out: 50% growth inhibitory concentration (IC50)), 220 nM; in series [3] (HL-60 assay system, comparison with chemotherapeutic agents, read-out: IC50, growth inhibition) it was 500 nM. Moreover, the “cell growth, % of untreated control cells” value is 28+/−0.79% in series [3] (0.75 uM) and 79+/−2.4% in series [3] (0.75 uM JS-K together with 50 uM C-VAD-FMK). The “JS-K-induced growth inhibition after NAC pretreatment” value in series [3] (HL-60, pretreatment 2-6 h with NAC) was “prevented the JS-K-induced growth inhibition”. Besides, the “JS-K-induced growth inhibition after BSO pretreatment” value was “did not appear to prevent the JS-K-induced growth inhibition” in series [3] (HL-60, pretreatment with BSO for 2-6 h) and “appeared to enhance the effects” in series [3] (HL-60, pretreatment with BSO for 24 h). Moreover, in series [4] (0.1 M phosphate pH 7.4, 37° C.), the resistance to hydrolysis result is given as “resistant to simple hydrolysis”. Further, the “rate constant for JS-K hydrolysis” value in series [4] (measured separately in the absence of GSH, pH 7.4, 37° C.) was found to be 1e-06 s⁻¹. Besides, the hydrolysis entry in series [4] (pH=12) was “much more facile”.
